pIC50: −log10 of the molar value. Like-named read-outs stand apart in the source and are kept apart here.
Legend:
[1] = target: CDK2/Cyclin-A kinase complex (Homo sapiens, UniProt P24941); test: CDK2 IMAP fluorescence polarization assay; format: biochemical; conditions: Table E; read-out: CDK2cyA IMAP/IC50 [umol l − 1]
Excerpt: In order to test the CDK2 activity of the compounds of the invention, the CDK2 assay is a flourescence polarization assay, where the enzyme is a purified active CDK2/Cyclin-A kinase complex and the substrate is a synthesized peptide derived from Histone H1. This assay utilizes the IMAP technology from Molecular Devices. The active CDK2/Cyclin-A complex phosphorylates the peptide substrate, which is conjugated with the TAMRA tag. The phosphorylated site is then recognized by a metal containing molecule that interacts with the TAMRA tag to induce a high flourescence polarization. The compounds that inhibit the CDK2 kinase activity would inhibit the flourescence output of the assay.

[2] = target: CDK4 (Homo sapiens, UniProt P11802); test: CDK4 HTRF assay; format: biochemical; conditions: Table E
CDK4, sequence (P11802 whole entry): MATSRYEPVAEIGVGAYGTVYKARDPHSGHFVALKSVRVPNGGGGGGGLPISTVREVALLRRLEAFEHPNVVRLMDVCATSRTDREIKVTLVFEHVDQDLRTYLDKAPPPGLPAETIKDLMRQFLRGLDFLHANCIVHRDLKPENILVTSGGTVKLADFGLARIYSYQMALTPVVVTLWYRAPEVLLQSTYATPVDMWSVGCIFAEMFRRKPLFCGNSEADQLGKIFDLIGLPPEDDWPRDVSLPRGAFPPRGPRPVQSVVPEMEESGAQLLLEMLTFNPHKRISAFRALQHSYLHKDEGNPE
CDK4, sequence (P24385 whole entry partner): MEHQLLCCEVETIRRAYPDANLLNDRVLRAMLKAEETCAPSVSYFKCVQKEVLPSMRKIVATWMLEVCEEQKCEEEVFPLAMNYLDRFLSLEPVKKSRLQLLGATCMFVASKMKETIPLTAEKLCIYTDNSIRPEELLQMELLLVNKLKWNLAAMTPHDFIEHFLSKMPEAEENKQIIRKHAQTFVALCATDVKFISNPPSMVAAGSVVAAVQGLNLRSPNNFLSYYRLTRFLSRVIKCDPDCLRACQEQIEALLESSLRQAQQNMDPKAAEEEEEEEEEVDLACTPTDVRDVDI

[3] = read-out: CDK4 HTRF/IC50 [umol l − 1]

Structure (SMILES) | pIC50 [1] | pIC50 [2, 3] | pIC50 ([2]; CDK4 HTRF/IC50 [umol l − 1])
Cc1c(-c2cnco2)n(C2CCCC2)c2nc(Nc3ccc(N4CCNCC4)cn3)ncc12 [Example 399] | > 5.00 | > 6.00 | –
Cc1cn(-c2nccs2)c2nc(Nc3ccc(N4CCN(S(C)(=O)=O)CC4)cn3)ncc12 [Example 446] | > 5.00 | 5.00 | –
CCC(C)n1ccc2cnc(Nc3ccc(N4CCNCC4)cc3)nc21 (stereo not shown) [Example 230] | > 5.00 | > 6.00 | –
c1cc(Nc2ncc3ccn(C4CCCC4)c3n2)ncc1N1CCNCC1 [Example 424] | < 5.00 | – | > 6.00
COc1ccccc1Nc1ncc2c(C)cn(C3CCCC3)c2n1 [Example 293] | < 5.00 | 5.00 | –
c1cc(N2CCNCC2)ccc1Nc1ncc2ccn(C3CCCC3)c2n1 [Example 256] | > 5.00 | > 6.00 | –
Cc1cn(C2CCCCC2)c2nc(Nc3ccc(N4CCNCC4)cn3)ncc12 [Example 426] | < 5.00 | > 6.00 | –
Brc1cn(C2CCCC2)c2nc(Nc3ccc(N4CCNCC4)cn3)ncc12 [Example 432] | < 5.00 | < 5.00 | –
Cc1cc(-c2c(C)c3cnc(Nc4ccc(N5CCNCC5)cn4)nc3n2C2CCCC2)[nH]n1 [Example 404] | < 5.00 | > 6.00 | –
CCN(CC)c1ccc(Nc2ncc3ccn(C4CCCC4)c3n2)cc1 [Example 261] | > 5.00 | < 5.00 | –
CCC(CC)n1c(-c2cnco2)cc2cnc(Nc3ccc(N4CCN(C(C)=O)CC4)cc3)nc21 [Example 363, 1-(4-{4-[7-(1-Ethyl-propyl)-6-oxazol-5-yl-7H-pyrrolo[2,3-d]pyrimidin-2-ylamino]-phenyl}-piperazin-1-yl)-ethanone] | > 6.00 | > 6.00 | –
OC1CCCC(n2ccc3cnc(Nc4ccc(N5CCNCC5)cc4)nc32)C1 (stereo not shown) [Example 244] | > 6.00 | > 6.00 | –
Cc1cn(C2CCCC2)c2nc(Nc3ncccn3)ncc12 [Example 296] | < 5.00 | 5.00 | –
Cc1cn(C2CCCC2)c2nc(Nc3ccccc3[N+](=O)[O-])ncc12 [Example 295] | < 5.00 | 5.00 | –
Cc1ccc(Nc2ncc3ccn(C4CCCC4)c3n2)nc1 [Example 434] | < 5.00 | < 5.00 | –
Cc1cn(C2CCCC2)c2nc(Nc3ccccc3Cl)ncc12 [Example 443] | < 5.00 | 5.00 | –
Cc1cccnc1Nc1ncc2c(C)cn(C3CCCC3)c2n1 [Example 297] | < 5.00 | 5.00 | –
Cc1cn(C2CCCC2)c2nc(Nc3ccccc3C#N)ncc12 [Example 301] | < 5.00 | 5.00 | –
CCC(CC)n1c(C(C)OC)cc2cnc(Nc3ccc(N4CCNCC4)cc3)nc21 (stereo not shown) [Example 378, [7-(1-Ethyl-propyl)-6-(1-methoxy-ethyl)-7H-pyrrolo[2,3-d]pyrimidin-2-yl]-(4-piperazin-1-yl-phenyl)-amine] | > 5.00 | > 6.00 | –
COC(=O)c1c(C)c2cnc(Nc3ccc(N4CCNCC4)cn3)nc2n1C1CCCC1 [Example 384, 7-Cyclopentyl-5-methyl-2-(5-piperazin-1-yl-pyridin-2-ylamino)-7H-pyrrolo[2,3-d]pyrimidine-6-carboxylic acid methyl ester] | < 5.00 | > 6.00 | –
Cc1c(Cl)c2cnc(Nc3ccc(N4CCNCC4)cn3)nc2n1C1CCCC1 [Example 334] | < 5.00 | > 6.00 | –
c1cc(N2CCNCC2)ccc1Nc1ncc2ccn(C34CC5CC(CC(C5)C3)C4)c2n1 [Example 245] | > 6.00 | > 6.00 | –
Cc1cn(-c2cccnc2)c2nc(Nc3ccc(N4CCNCC4)cn3)ncc12 [Example 447] | < 5.00 | 5.00 | –

Reference: patent US20120207763A1, “PYRROLOPYRIMIDINE COMPOUNDS AND THEIR USES” (ASTEX THERAPEUTICS LIMITED, priority 2006, published 2012)
